# Test system: lung adenocarcinoma cell line HCC4006
# Test: HCC4006 cell growth inhibition test (Test Example 2)
# Assay type: cell-based
# Conditions: Homo sapiens, 120 h; 1 μM test compound; HCC4006 cells, culture for 5 days, CellTiter-Glo; read-out: Rate of inhibition (%) at 1 μM
# Experimental: A lung adenocarcinoma cell line HCC4006 (ATCC) was cultured using an RPMI-1640 medium (Wako Pure Chemical Industries, Ltd.) containing 10% fetal bovine serum and penicillin/streptomycin. 250 cells per well were inoculated into 40 μL of a medium in a 384-well culture plate. On the next day, 10 μL of each test compound was added to the cells. After culture for 5 days, the medium was discarded, and 30 μL of CellTiter-Glo Luminescent Cell Viability Assay solution (Promega Corp., Fitchburg, Wis., U.S.) was added to each well. Light emission signals were measured using EnVision (PerkinElmer, Inc., Waltham, Mass., U.S.).
# The rate of inhibition (%) by the test compound was calculated according to the following expression: Rate of inhibition (%)=(1−(Count of the test compound−Blank)/(Control−Blank))×100
# In the above expression, a count under compound non-addition conditions was indicated as a control, and a count under cell-free conditions was indicated as a blank.
row,SMILES,inhibition at 1 µM
1,"COc1ccc(C(=O)N2CC[C@H](NC(=O)c3ccccc3Cl)c3c2cnn3C(C)C)cc1OC [Example 74A, 2-Chloro-N-((7S)-4-(3,4-dimethoxybenzoyl)-1-isopropyl-4,5,6,7-tetrahydro-1H-pyrazolo[4,3-b]pyridin-7-yl)benzamide]",51%
2,"COc1ccc(C(=O)N2CC[C@@H](NC(=O)c3ccccc3Cl)[C@H](c3ccccc3)C2)cc1OC [Example 3B, 2-chloro-N-((3R,4R)-1-(3,4-dimethoxybenzoyl)-3-phenylpiperidin-4-yl)benzamide]",44%
3,"COc1ccc(C(=O)N2CC[C@@H](NC(=O)c3ccccc3Cl)[C@@H](c3ccccc3)C2)cc1OC [Example 2B, 2-chloro-N-((3S,4R)-1-(3,4-dimethoxybenzoyl)-3-phenylpiperidin-4-yl)benzamide]",55%
4,"COc1cc(C(=O)N2CCC(NC(=O)c3ccccc3OC(F)(F)F)c3c2cnn3C(C)C)cnc1OC (stereo not shown) [Example 132A, N-(4-((5,6-Dimethoxypyridin-3-yl)carbonyl)-1-isopropyl-4,5,6,7-tetrahydro-1H-pyrazolo[4,3-b]pyridin-7-yl)-2-(trifluoromethoxy)benzamide]",52%

# Target: T1, SPT (SPT2-expressing membrane fraction: human SPT1, human SPT2 and human ssSPTa) (Homo sapiens, UniProt O15269+O15270)
# T1 construct: Full-length human SPT1, human SPT2 and human ssSPTa used; made in house; host or cells: FreeStyle 293 cells (pcDNA3.1 vectors, cotransfection); crude membrane fraction used
# T1 sequence (O15269 1-473): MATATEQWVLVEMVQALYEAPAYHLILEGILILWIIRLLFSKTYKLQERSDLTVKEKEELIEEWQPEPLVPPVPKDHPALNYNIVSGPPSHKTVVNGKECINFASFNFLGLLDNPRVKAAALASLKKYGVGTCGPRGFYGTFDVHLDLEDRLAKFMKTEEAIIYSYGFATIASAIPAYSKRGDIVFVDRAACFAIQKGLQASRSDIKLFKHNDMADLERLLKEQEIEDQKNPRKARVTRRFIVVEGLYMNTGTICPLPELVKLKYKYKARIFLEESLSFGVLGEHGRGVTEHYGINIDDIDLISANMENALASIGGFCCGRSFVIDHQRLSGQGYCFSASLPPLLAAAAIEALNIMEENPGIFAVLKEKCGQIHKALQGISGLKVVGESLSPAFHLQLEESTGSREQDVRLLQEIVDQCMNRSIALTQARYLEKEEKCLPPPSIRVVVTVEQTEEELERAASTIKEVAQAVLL
# T1 sequence (O15270 1-562): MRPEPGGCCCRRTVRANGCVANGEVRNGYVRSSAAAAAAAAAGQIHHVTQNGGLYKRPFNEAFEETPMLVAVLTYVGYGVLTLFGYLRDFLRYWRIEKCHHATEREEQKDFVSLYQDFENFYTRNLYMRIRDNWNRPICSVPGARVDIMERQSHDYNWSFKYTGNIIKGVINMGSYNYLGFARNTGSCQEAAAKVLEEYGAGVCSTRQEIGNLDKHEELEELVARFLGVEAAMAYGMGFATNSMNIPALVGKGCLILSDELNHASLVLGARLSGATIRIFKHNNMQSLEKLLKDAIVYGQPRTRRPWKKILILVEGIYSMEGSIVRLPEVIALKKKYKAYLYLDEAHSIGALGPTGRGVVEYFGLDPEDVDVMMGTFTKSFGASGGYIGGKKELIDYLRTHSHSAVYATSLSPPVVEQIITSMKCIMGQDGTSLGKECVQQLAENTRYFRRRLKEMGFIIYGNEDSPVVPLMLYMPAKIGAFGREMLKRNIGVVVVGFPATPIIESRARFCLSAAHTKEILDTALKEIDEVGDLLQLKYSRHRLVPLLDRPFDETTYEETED
# T1 sequence (Q969W0 1-71 partner): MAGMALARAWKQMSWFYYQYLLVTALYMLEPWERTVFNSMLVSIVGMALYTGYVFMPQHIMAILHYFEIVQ
# Test: SPT enzyme inhibition test (Test Example 1)
# Assay type: biochemical
# Conditions: read-out: Rate of inhibition (%) at 1 μM
# Experimental: After culture for 3 days, the cells were recovered and frozen at −80° C. to obtain expressing cells. The frozen cells were suspended in a 50 mM Hepes buffer (pH 7.5) containing 250 mM sucrose, 5 mM ethylenediaminetetraacetic acid (EDTA), 5 mM dithiothreitol (DTT) and Complete, EDTA-free (Roche Applied Science, Penzberg, Upper Bavaria, Germany). The cells were disrupted (on ice, 20,000 rpm, 20 sec×2) using POLYTORON (Central Scientific Commerce, Inc.). After centrifugation at 2000 rpm (850×g) for 10 minutes, the supernatant was recovered. Subsequently, the supernatant was centrifuged at 40,000 rpm (186,010×g) for 60 minutes, and the supernatant was discarded. The pellets were suspended in a 50 mM Hepes buffer (pH 7.5) containing 5 mM EDTA, 5 mM DTT and Complete, EDTA-free, passed through a 40-μm cell strainer and stored at −80° C. The resultant was used as a SPT2-expressing membrane fraction. The protein concentration was determined using CBB Protein Assay with bovine serum albumin used as standards.
# 5 μL of each test compound was mixed with 10 μL of the 100 μg/mL SPT2-expressing membrane fraction using an assay buffer (100 mM Hepes (pH 8.0) containing 2.5 mM EDTA, 5 mM DTT and 0.01% fatty acid-free bovine serum albumin), and the mixture was left standing at room temperature for 60 minutes. Subsequently, 5 μL of a substrate solution containing 2 mM L-serine and 20 μM palmitoyl CoA was added thereto, and an enzyme reaction was carried out in a 384-well plate using 20 μL in total of the reaction system. After reaction at room temperature for 15 minutes, the reaction was terminated by the addition of 20 μL of a 2% aqueous formic acid solution. Subsequently, 40 μL of acetonitrile containing 600 nM C17-sphinganine (Avanti Polar Lipids, Inc., Alabaster, Ala., U.S.) was added thereto as an internal standard. The reaction sample was subjected to on-line solid-layer extraction using RapidFire 300 (Agilent Technologies Inc., Santa Clara, Calif., U.S.). […] Mass chromatograms were obtained using Analyst software (version 1.5.0, AB SCIEX). Their mass chromatogram areas were respectively calculated, and the rate of inhibition (%) by the test compound was calculated using an area ratio (the value of the reaction product was divided by the value of the internal standard).
row,SMILES,inhibition at 1 µM
1,"COc1ccc(C(=O)N2CCC(NC(=O)c3sccc3Cl)c3c2cnn3C)cc1OC (stereo not shown) [Example 64A, 3-chloro-N-(4-(3,4-dimethoxybenzoyl)-1-methyl-4,5,6,7-tetrahydro-1H-pyrazolo[4,3-b]pyridin-7-yl)thiophene-2-carboxamide]",82%
2,"COc1ccc(C(=O)N2CCC(NC(=O)c3ccccc3Cl)c3nn(C)cc32)cc1OC (stereo not shown) [Example 1A, 2-Chloro-N-(4-(3,4-dimethoxybenzoyl)-2-methyl-4,5,6,7-tetrahydro-2H-pyrazolo[4,3-b]pyridin-7-yl)benzamide]",91%
3,"COc1ccc(C(=O)N2CCC(NC(=O)c3ccccc3Cl)c3nscc32)cc1OC (stereo not shown) [Example 30A, 2-Chloro-N-[4-(3,4-dimethoxybenzoyl)-4,5,6,7-tetrahydro[1,2]thiazolo[4,3-b]pyridin-7-yl]benzamide]",93%
4,"COc1ccc(C(=O)N2CC[C@@H](NC(=O)c3ccccc3OC(F)(F)F)[C@@H](N3CCCCC3)C2)cc1OC (relative stereo) [Example 55B, N-(cis-1′-(3,4-Dimethoxybenzoyl)-1,3′-bipiperidin-4′-yl)-2-(trifluoromethoxy)benzamide]",95%
5,"COc1ccc(C(=O)N2CCC(NC(=O)c3ccccc3Cl)c3noc(C)c32)cc1OC (stereo not shown) [Example 17A, 2-Chloro-N-[4-(3,4-dimethoxybenzoyl)-3-methyl-4,5,6,7-tetrahydro[1,2]oxazolo[4,3-b]pyridin-7-yl]benzamide]",84%

# Other lines, results leading:
row,inhibition at 1 µM,SMILES
1,102%,"COc1ccc(C(=O)N2CCC(NC(=O)c3ccccc3Cl)c3ccc(Cl)nc32)cc1OC (stereo not shown) [Example 217A, 2-Chloro-N-(7-chloro-1-(3,4-dimethoxybenzoyl)-1,2,3,4-tetrahydro-1,8-naphthyridin-4-yl)benzamide]"
2,95%,"COc1ccc(C(=O)N2CCC(NC(=O)c3cccnc3C(F)(F)F)c3c2cnn3C)cc1OC (stereo not shown) [Example 103A, N-(4-(3,4-dimethoxybenzoyl)-1-methyl-4,5,6,7-tetrahydro-1H-pyrazolo[4,3-b]pyridin-7-yl)-2-(trifluoromethyl)nicotinamide]"
3,84%,"COc1ccc(C(=O)N2CCC(NC(=O)c3ccccc3Cl)c3c(C)nsc32)cc1OC (stereo not shown) [Example 117A, 2-Chloro-N-(7-(3,4-dimethoxybenzoyl)-3-methyl-4,5,6,7-tetrahydro[1,2]thiazolo[5,4-b]pyridin-4-yl)benzamide]"
4,93%,"COc1ccc(C(=O)N2CCC(NC(=O)c3ccccc3Cl)c3c(C)nn(C)c32)cc1OC (stereo not shown) [Example 172A, 2-Chloro-N-(7-(3,4-dimethoxybenzoyl)-1,3-dimethyl-4,5,6,7-tetrahydro-1H-pyrazolo[3,4-b]pyridin-4-yl)benzamide]"
5,89%,"COc1ccc(C(=O)N2CC[C@@H](NC(=O)c3ccccc3Cl)[C@H](c3sccc3C)C2)cc1OC (relative stereo) [Example 270B, 2-chloro-N-(trans-1-(3,4-dimethoxybenzoyl)-3-(3-methyl-2-thienyl)piperidin-4-yl)benzamide]"
6,82%,"COc1cc(C(=O)N2CC[C@@H](NC(=O)c3ccccc3OC(F)(F)F)[C@H](n3cccn3)C2)cnc1OC (relative stereo) [Example 276B, N-(trans-1-((5,6-dimethoxypyridin-3-yl)carbonyl)-3-(1H-pyrazol-1-yl)piperidin-4-yl)-2-(trifluoromethoxy)benzamide]"
7,94%,"COc1ccc(C(=O)N2CCC(NC(=O)c3cnccc3C(F)(F)F)c3c2cnn3C)cc1OC (stereo not shown) [Example 91A, N-(4-(3,4-dimethoxybenzoyl)-1-methyl-4,5,6,7-tetrahydro-1H-pyrazolo[4,3-b]pyridin-7-yl)-4-(trifluoromethyl)nicotinamide]"
8,97%,"COc1cc(C(=O)N2CC[C@@H](NC(=O)c3ccccc3OC(F)(F)F)[C@H](N3CCCCC3)C2)cnc1OC (relative stereo) [Example 253B, N-(trans-1′-((5,6-Dimethoxypyridin-3-yl)carbonyl)-1,3′-bipiperidin-4′-yl)-2-(trifluoromethoxy)benzamide]"
9,94%,"COc1cc(C(=O)N2CC[C@@H](NC(=O)c3ncccc3C(F)(F)F)[C@@H](c3ccccc3)C2)n(C)n1 [Example 72B, N-((3S,4R)-1-((3-methoxy-1-methyl-1H-pyrazol-5-yl)carbonyl)-3-phenylpiperidin-4-yl)-3-(trifluoromethyl)pyridine-2-carboxamide]"
10,98%,"COc1cc(C(=O)N2CC[C@@H](NC(=O)c3ccnn3C)[C@@H](c3ccccc3)C2)cnc1OC [Example 144B, N-((3S,4R)-1-((5,6-dimethoxypyridin-3-yl)carbonyl)-3-phenylpiperidin-4-yl)-1-methyl-1H-pyrazole-5-carboxamide]"

# Source: patent US10189785B2, “Heterocyclic compound” (TAKEDA PHARMACEUTICAL COMPANY LIMITED, priority 2015, dated 2019)
